Values quoted from earlier work in patent US20220143046A1, “COMPOSITION AND METHODS FOR RECTAL DELIVERY OF 4-AAPA AND 5-ASA COMPOUNDS” (9 METERS BIOPHARMA, INC., priority 2019, published 2022).

Settings: oral formulation; two Phase 1 clinical trials for mild to moderate ulcerative colitis

O=C(O)Cc1ccc(/N=N/c2ccc(O)c(C(=O)O)c2)cc1 [INN-108, 5-(4-carboxymethyl-phenylazo)-2-hydroxybenzoic acid]
systemic absorption: no evidence of systemic absorption
